Test results as given in patent publication US7189742B2, “Piperidin-2,6-dione bisulphate salts and their use for the treatment of stress related affective disorders” (Prestwick Pharmaceuticals, Inc., priority 2001, dated 2007).
Counter-ions that a name gives are not always drawn. Like-named read-outs stand apart in the source and are kept apart here.

Tests used:
Male Wistar rats [1] = assay: Chronic mild stress (CMS) model, consumption of 1% sucrose solution; assay type: in vivo, rat; conditions: for consumption of sucrose solution one week after withdrawal from treatment: all drug-treated groups, control and stressed, stress continued; for consumption of sucrose solution in control animals / sucrose intake in stressed animals (treatment effect): 5 weeks
Protocol: (§1) Male Wistar rats were brought into the laboratory 2 months before the start of the experiment, at which time they weighed approx. 300 g. Except as described below, all animals were singly housed, with food and water freely available, and maintained on a 12-hour light/dark. The animals were first trained to consume a 1% sucrose solution. Training consisted of nine 1-hour baseline tests in which sucrose was presented in pre-weighed bottles, in the home cage, and, following 14 hours food and water deprivation; the sucrose intake was measured by weighing the pre-weighed bottles at the end of the test. Subsequently, sucrose consumption was monitored, under similar conditions, at weekly intervals throughout the whole experiment.
(§2) On the basis of their sucrose intakes in the final baseline test, the animals were divided into two matched groups. One group of animals was subjected to a chronic mild stress (“CMS”) procedure for a period of 9 consecutive weeks. Each week of stress regime consisted of: two periods of food or water deprivation, two periods of 45 degree cage tilt, two periods of intermittent illumination (lights on and off every 2 hours), two periods of soiled cage (250 ml water in sawdust bedding), two periods of paired housing, two periods of low intensity stroboscopic illumination, and two periods of no stress. All stressors were of 10–14 hours duration and were applied individually and continuously, day and night. Control animals were housed in a separate room and had no contact with the stressed animals. They were deprived of food and water for the 14 hours preceding each sucrose test, but otherwise food and water were freely available in the home cage. […] After five weeks, all treatments were terminated and after one week of withdrawal a final sucrose test was carried out. Stress was continued throughout the period of treatment and withdrawal.
Chronic mild stress causes a gradual decrease in the consumption of 1% sucrose solution. In the final baseline test, all animals drank approximately 12 g of sucrose solution. Following initial three weeks of stress, intakes remained at the same level in control animals but fell to 7.5 (±0.3) g in stressed animals. Such a difference between control and stressed animals treated with vehicle, persisted at similar level for the remainder of the experiment [Group effect: F(1,98)=67.256; P<0.001].

[2] = Body weights, behaviour and withdrawal signs in the CMS study; assay type: in vivo, rat; conditions: for effect of chronic treatment on body weights: 5 weeks, imipramine 10 mg/kg i.p., AGN 2979 bisulphate 1, 4, 16 mg/kg p.o.; for signs of withdrawal after cessation of treatment: stressed or control animals, one week after cessation
Protocol: as §1, §2

[3] = Effect of AGN 2979 bisulphate on rat weight (0.36% in diet); assay type: in vivo, Male Spraque-Dawley rats; conditions: after initial period of 3 or 4 days, about 230 mg/kg
Protocol: 4 Male Spraque-Dawley rats were fed with their standard laboratory diet to which had been added 0.36% AGN 2979 bisulphate for a period of 9 days and their weight monitored on a daily basis and compared with 2 control rats receiving the standard laboratory diet without the bisulphate. For a rat weighing 360 g and consuming 23 g of the diet, the amount of AGN 2979 bisulphate consumed was about 230 mg/kg. The results are shown in Table 1 below, in which the bisulphate is identified as “AGN 2979 BS”. […] In particular, the test rats lost or merely maintained their body weight. The weight gains after an initial 3 day period for the two control rats and for test rats 3 and 6 are shown graphically in FIG. 1 and the weight gains for all 6 rats after an initial 4 day period are shown in FIG. 2.

subject = assay: Single subject with obstructive sleep apnoea, oral maintenance treatment; assay type: in vivo, human
Protocol: A subject, height 178 cm and weighing 90 kilograms having had persistent awakening episodes of obstructive sleep apnoea (manifested by nocturnal choking) had been treated for several years with AGN 2979 hydrochloride, initially at a daily oral dose level of 120 mg and subsequently at a single oral maintenance dose of 120 mg every 4 days. […] The patient also reports that previous regular bouts of seasickness have been not recurred since treatment with AGN 2979 bisulphate.

tryptophan hydroxylase = conditions: no method or data given; cited from earlier work
[4] = cited from earlier work
human patients = conditions: cited from earlier work; for treatment of anxiety and depression: about 4 mg/kg/day (200–400 mg/day for human patients)
Male Wistar rats [5] = conditions: earlier studies, cited from earlier work
[6] = stressed animals, 4 mg/kg p.o. daily
[7] = single oral maintenance dose of 65 mg every two days, one subject
[8] = stressed animals, imipramine 10 mg/kg i.p. daily

COc1cccc(C2(CCCN(C)C)C(=O)NC(=O)CC2(C)C)c1 (stereo not shown) [AGN 2979 bisulphate, 3(3-methoxyphenyl)-3-(3-dimethylaminopropyl)-4,4-dimethyl-piperidine-2,6-dione bisulphate]
consumption of sucrose solution one week after withdrawal from treatment (Male Wistar rats [1]): comparable to that observed in Week 5 of treatment | consumption of sucrose solution in control animals (Male Wistar rats [1]; any of three doses 1, 4 and 16 mg/kg p.o. daily): not changed | activity against stress-induced deficit in sucrose consumption (Male Wistar rats [1]; stressed animals, 1 mg/kg p.o. daily): ineffective | activity against stress-induced deficit in sucrose consumption (Male Wistar rats [1]; [6]): active | onset of significant increase of sucrose intake (Male Wistar rats [1]; [6]): within the first week of treatment | sucrose solution drunk at end of treatment (Week 5) versus vehicle-treated controls (Male Wistar rats [1]; [6]): comparable to that of vehicle-treated controls | activity against stress-induced deficit in sucrose consumption (Male Wistar rats [1]; stressed animals, 16 mg/kg p.o. daily): ineffective | sucrose intake in stressed animals (treatment effect) (Male Wistar rats [1]; stressed animals, 1, 4 and 16 mg/kg p.o. daily, overall): gradual increase of sucrose intake | behavioural impairments ([2]; 16 mg/kg p.o., control and stressed animals, disappeared at end of third week): sedation, hypoactivity (but not catalepsy) and hyporeactivity to handling and drug injections | effect of chronic treatment on body weights ([2]; control and stressed animals): no significant effect on body weights | signs of withdrawal after cessation of treatment [2]: no signs of withdrawal were observed | weight gain of test rats versus control rats [3]: the same as that of the control rats | nocturnal choking after suspension of administration (subject; administration suspended, one subject): returned after three weeks | bouts of seasickness (subject; patient report, since treatment): not recurred | awakening episodes of obstructive sleep apnoea (subject; [7]): continued absence of awakening episodes | side effects (subject; [7]): no side effects | activation of tryptophan hydroxylase by metabolic inhibitors (guanidine, sodium cyanide) (tryptophan hydroxylase): blocked

COc1cccc(C2(CCCN(C)C)C(=O)NC(=O)CC2(C)C)c1 (stereo not shown) [AGN 2979 hydrochloride, 3(3-methoxyphenyl)-3-(3-dimethylaminopropyl)-4,4-dimethylpiperidine-2,6-dione]
post-mortem examination finding ([4]; 200 mg/kg/day p.o., rats, 1 year, not detected by routine transaminase determinations): hepatocyte changes | weight loss ([4]; 200 mg/kg/day p.o., rats, over the 1-year period): 40% | weight of test rats compared with control rats ([4]; 200 mg/kg, previous experiments): continuing weight disparity (loss) | anxiolytic properties at FDA permitted dose (human patients; 1 mg b.i.d. (about 30 μg/kg/day), clinical study by Cutler et al): only marginally effective anxiolytic properties | treatment of anxiety and depression (human patients): effective in alleviating depression | treatment of anxiety and depression (human patients; listed as hydrochloride salt of AGN 2979): effective | adverse effects following discontinuation of chronic administration (human patients; previous clinical observations): does not cause any adverse effects following discontinuation

O=C1CC2(CCCC2)CC(=O)N1CCCCN1CCN(c2ncccn2)CC1 [buspirone]
efficacy against CMS-induced anhedonia when doses increased above threshold active ones (Male Wistar rats [5]): not more effective

CN(C)CCC=C1c2ccccc2CCc2ccccc21 [amitriptyline]
efficacy against CMS-induced anhedonia when doses increased above threshold active ones (Male Wistar rats [5]): not more effective

CN(C)CCCN1c2ccccc2CCc2ccccc21 [imipramine]
consumption of sucrose solution one week after withdrawal from treatment (Male Wistar rats [1]): comparable to that observed in Week 5 of treatment | consumption of sucrose solution in control animals (Male Wistar rats [1]; imipramine 10 mg/kg i.p. daily): not changed | onset of significant increase of sucrose intake (Male Wistar rats [1]; [8]): after three weeks of treatment | sucrose intake after five weeks of treatment versus vehicle-treated control animals (Male Wistar rats [1]; [8]): no significant differences between drug-treated stressed and vehicle-treated control animals | sucrose intake in stressed animals (treatment effect) (Male Wistar rats [1]; [8]): gradual increase of sucrose intake | effect of chronic treatment on body weights ([2]; control and stressed animals): no significant effect on body weights | signs of withdrawal after cessation of treatment [2]: no signs of withdrawal were observed | effects in CMS model at higher dose (magnitude and time-course) (Male Wistar rats [5]; imipramine 20 mg/kg per day): caused similar effects
